This is an account of results in ChEMBL document CHEMBL1201862, “PubChem BioAssay data set” (2004).

Among the test systems are 786-0; A498; CCRF-CEM; HCT-15; HL-60; Hs-578T; NCI-H23; NCI-H522; OVCAR-8; SF-268; SF-295; SN12C; SNB-75; SW-620; T47D; U-251; UACC-257; UACC-62; RPMI-8226.
Holding throughout (experiment): NCI anticancer screen, dose series, 48 h

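Method: 48-hour compound exposure of cells in 96-well plates, five concentrations, linear interpolation of endpoints. Here, GI50 denotes the concentration required for 50% inhibition of growth.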 Calls of active or inactive are those of the source. Rule as the data show it: active = GI50 up to about 1.1 µM and inactive = higher. A value given as a limit tells only on which side of the number the result lay.

For the compound `O=[N+]([O-])c1ccc(NN/N=N/c2ccc(-c3nc4ccccc4[nH]3)cc2)c([N+](=O)[O-])c1`, the GI50 with 786-0 is 36.3 µM (inactive); with A498, 25.6 µM (inactive); in the assay with CCRF-CEM, 9.04 µM (inactive); in the assay on HCT-15, 19.7 µM; in the assay with HL-60 it was 13.8 µM (inactive); in the assay on Hs-578T it was 64.9 µM (inactive). Further, the GI50 with NCI-H23 was 29 µM (inactive); in the assay with NCI-H522, 17.9 µM (inactive); in the assay with OVCAR-8, 22.5 µM (inactive); with SF-268 it was 26.1 µM (inactive); with SF-295, 4.2 µM (inactive); in the assay with SN12C, 64.6 µM (inactive). The GI50 with SNB-75 is 96.6 µM (inactive); in the assay with SW-620, 68.5 µM (inactive); with T47D, 30.1 µM (inactive); in the assay with U-251, 53.7 µM (inactive); with UACC-257, 76.7 µM (inactive); with UACC-62, 4.06 µM (inactive).

Consider `CC#CC(O)(C(=O)OC1CCCN(C)C1)C1=CC=CCC1` (centres undefined), for which the GI50 in the assay with 786-0 was > 100 µM (inactive); in the assay on A498 it was > 100 µM (inactive); in the assay with CCRF-CEM, > 100 µM (inactive); with HCT-15 it was over 100 µM; in the assay on HL-60 it was > 100 µM (inactive); in the assay with Hs-578T, > 100 µM (inactive). Further, the GI50 with NCI-H23, with NCI-H522, in the assay with OVCAR-8, in the assay on RPMI-8226, in the assay with SF-268 and with SF-295 was > 100 µM (inactive) throughout. Also, the GI50 with SN12C, in the assay with SNB-75, in the assay on SW-620, in the assay with T47D, with U-251 and in the assay with UACC-257 was > 100 µM (inactive) throughout. The GI50 in the assay with UACC-62 was > 100 µM (inactive).

`C=CCC(C(=O)O)c1ccccc1` (centres undefined): the GI50 in the assay with 786-0 was > 100 µM (inactive); in the assay on A498, > 100 µM (inactive); in the assay on CCRF-CEM it was > 100 µM (inactive); with HCT-15, over 100 µM; in the assay with HL-60 it was > 100 µM (inactive); in the assay with Hs-578T, > 100 µM (inactive). Further, the GI50 with NCI-H23, with NCI-H522, with OVCAR-8, with RPMI-8226, in the assay with SF-268 and with SF-295 was > 100 µM (inactive) in each case. The GI50 with SN12C, with SNB-75, with SW-620, in the assay with T47D, in the assay with U-251 and in the assay on UACC-257 was > 100 µM (inactive) each time. For the same compound, the GI50 in the assay on UACC-62 was > 100 µM (inactive).

For the compound `O=C(CC(=O)Nc1ccccc1)NNC(Sc1ccccc1)c1cc(/N=N/c2ccc(Br)cc2)ccc1O` (centres undefined), the GI50 in the assay on 786-0 is 0.802 µM (active); in the assay with A498, 1.91 µM (inactive); in the assay with CCRF-CEM, 0.417 µM (active); in the assay with HCT-15 it was 0.678 µM; with HL-60 it was 0.356 µM (active); in the assay on Hs-578T, > 10 µM (inactive). For the same compound, the GI50 in the assay on NCI-H23 was 2.83 µM (inactive); in the assay on NCI-H522, 4.81 µM (inactive); with RPMI-8226 it was 4.2 µM (inactive); with SF-268 it was 0.587 µM (active); in the assay with SF-295, 3.85 µM (inactive); in the assay with SN12C it was 1.89 µM (inactive). The GI50 was 3.15 µM (inactive) in the assay with SNB-75; 0.931 µM (active) with SW-620; 3.51 µM (inactive) in the assay with T47D; 6.31 µM (inactive) with U-251; 4.29 µM (inactive) in the assay on UACC-257; 2.09 µM (inactive) with UACC-62.

Regarding `CN(/N=C(\C(=O)O)c1ccccc1)C1=NCCN1`, the GI50 in the assay with 786-0 was > 100 µM (inactive); in the assay on A498, > 100 µM (inactive); with CCRF-CEM, > 100 µM (inactive); in the assay on HCT-15, over 100 µM; in the assay with HL-60 it was > 100 µM (inactive); with Hs-578T, > 100 µM (inactive). In addition, the GI50 in the assay with NCI-H23, with NCI-H522, with OVCAR-8, in the assay on RPMI-8226, in the assay on SF-268 and in the assay with SF-295 was > 100 µM (inactive) in each case. Also, the GI50 in the assay on SN12C, in the assay on SNB-75, in the assay with SW-620, in the assay with T47D, with UACC-257 and in the assay with UACC-62 was > 100 µM (inactive) in each case.

With `O=C(NC(Nc1ccc(F)c(Cl)c1)(C(F)(F)F)C(F)(F)F)OCc1ccccc1`, the GI50 was 18.3 µM (inactive) with 786-0; 37.2 µM (inactive) in the assay with A498; 15.8 µM (inactive) in the assay on CCRF-CEM; 22.4 µM with HCT-15; 11.5 µM (inactive) with HL-60; 51.2 µM (inactive) in the assay on Hs-578T. Besides, the GI50 is 71.4 µM (inactive) in the assay on NCI-H23; 22.7 µM (inactive) with NCI-H522; 35 µM (inactive) with OVCAR-8; 20.4 µM (inactive) with RPMI-8226; 62.7 µM (inactive) in the assay on SF-268; 28.2 µM (inactive) with SF-295. Also, the GI50 in the assay on SN12C was 31.2 µM (inactive); in the assay on SNB-75, 36.9 µM (inactive); with SW-620, 61.7 µM (inactive); in the assay on T47D, 28.1 µM (inactive); in the assay with U-251 it was 29.2 µM (inactive); with UACC-257, > 100 µM (inactive). In addition, the GI50 with UACC-62 was 17.7 µM (inactive).

Regarding `Cc1ccc2c(c1)NC(=O)CCSSCCC(=O)N2`, the GI50 in the assay with 786-0 was > 100 µM (inactive); with A498, > 100 µM (inactive); with CCRF-CEM, > 100 µM (inactive); in the assay with HCT-15, over 100 µM; in the assay with HL-60 it was > 100 µM (inactive); with Hs-578T it was > 100 µM (inactive). Further, the GI50 in the assay on NCI-H23, in the assay with NCI-H522, in the assay with OVCAR-8, in the assay on RPMI-8226, in the assay with SF-268 and in the assay with SF-295 was > 100 µM (inactive) throughout. Besides, the GI50 with SN12C, in the assay with SW-620, in the assay on T47D, in the assay with U-251, with UACC-257 and in the assay on UACC-62 was > 100 µM (inactive) in each case.

For the compound `COC(=O)c1c(O)ccc2c1c1c(n2CCc2ccccc2)C(=O)c2ccccc2C1=O`, the GI50 in the assay with 786-0 is 16.7 µM (inactive); in the assay on A498, 16.6 µM (inactive); in the assay with CCRF-CEM it was 12.8 µM (inactive); in the assay with HCT-15, 9.35 µM; with HL-60, 17.8 µM (inactive); in the assay on Hs-578T, 13.3 µM (inactive). Further, the GI50 with NCI-H23 was 11.6 µM (inactive); in the assay on NCI-H522, 7.08 µM (inactive); in the assay on OVCAR-8 it was 8.18 µM (inactive); in the assay with RPMI-8226 it was 7.03 µM (inactive); in the assay with SF-268, 12.7 µM (inactive); with SF-295, 19.1 µM (inactive). Moreover, the GI50 is 12 µM (inactive) with SN12C; 13.2 µM (inactive) in the assay with SW-620; 5.47 µM (inactive) in the assay on T47D; 12.7 µM (inactive) in the assay with U-251; 17.7 µM (inactive) with UACC-257.

Turning to `O=C1/C(=C/c2ccc(Cl)cc2)N=C(c2ccccc2)N1c1ccc(S(=O)(=O)Nc2nccs2)cc1`, the GI50 was 46 µM (inactive) with 786-0; 43.6 µM (inactive) in the assay with A498; 27 µM (inactive) in the assay with CCRF-CEM; 37.5 µM in the assay on HCT-15; 30.5 µM (inactive) with HL-60; 64.4 µM (inactive) with Hs-578T. Besides, the GI50 is 52.2 µM (inactive) with NCI-H23; 17.4 µM (inactive) in the assay with RPMI-8226; 50.8 µM (inactive) with SF-268; 56.5 µM (inactive) with SF-295; 64 µM (inactive) in the assay with SN12C; 39.5 µM (inactive) in the assay on SNB-75. For the same compound, the GI50 in the assay with SW-620 is 39.8 µM (inactive); in the assay on T47D it was 21.7 µM (inactive); in the assay with U-251, 36.2 µM (inactive); in the assay on UACC-257 it was 32.7 µM (inactive); with UACC-62 it was 18.7 µM (inactive).

Consider `COc1ccc(S(=O)(=O)Nc2ccc(-c3csc(N4C(=O)/C(=C/c5ccccc5)N=C4c4ccccc4)n3)cc2)cc1Cl`, for which the GI50 in the assay on 786-0 is 46.5 µM (inactive); in the assay with A498, 11.3 µM (inactive); in the assay on CCRF-CEM, 43.5 µM (inactive); in the assay with HCT-15, 20.2 µM; with HL-60, 24.6 µM (inactive); in the assay with Hs-578T, 37.5 µM (inactive). Further, the GI50 in the assay on NCI-H23 was 23.2 µM (inactive); in the assay with NCI-H522, 39 µM (inactive); with OVCAR-8 it was 31.5 µM (inactive); in the assay with SF-268 it was 31.4 µM (inactive); in the assay with SF-295, 41.7 µM (inactive); in the assay with SN12C, 65.6 µM (inactive). In addition, the GI50 is 29.2 µM (inactive) with SNB-75; 43.7 µM (inactive) in the assay on SW-620; 17.9 µM (inactive) in the assay on T47D; 23.7 µM (inactive) in the assay on U-251; 30.9 µM (inactive) with UACC-257; 16.8 µM (inactive) with UACC-62.

On to `COc1c(O)cc2c(c1O)C(=O)C(Cc1ccc(O)cc1)CO2` (centres undefined), for which the GI50 with 786-0 was > 100 µM (inactive); in the assay on A498, > 100 µM (inactive); in the assay with HCT-15, 44 µM; in the assay on HL-60 it was 28.1 µM (inactive); in the assay on Hs-578T it was > 100 µM (inactive); in the assay on NCI-H23, > 100 µM (inactive). In addition, the GI50 with NCI-H522 is 80.7 µM (inactive); in the assay with OVCAR-8, 63.1 µM (inactive); with RPMI-8226 it was 25.7 µM (inactive); with SF-268 it was > 100 µM (inactive); with SF-295 it was 65.8 µM (inactive); in the assay with SN12C, > 100 µM (inactive). The GI50 in the assay with SNB-75 was 5.79 µM (inactive); in the assay with SW-620, > 100 µM (inactive); in the assay with T47D, > 100 µM (inactive); with U-251 it was > 100 µM (inactive); in the assay with UACC-257, > 100 µM (inactive); in the assay on UACC-62, 99.8 µM (inactive).
